Data taken from US5179206A, “Substituted 3-aminosydnone imines” (Cassella Aktiengellschaft, priority 1989, dated 1993).
Where a name gives a salt, the structure may show the parent alone. Read-outs that look alike come from different tables or passages of the source.

Test system: pulmonary artery of the guinea pig (spiral strips)
Assay: Relaxant effect on potassium-depolarized, CaCl2-contracted spiral strips of the pulmonary artery of the guinea pig (modified method of Godfraind and Kaba and of Schuman et al)
Details: depolarized using 40 mmol/l of potassium, contraction induced by 0.5 mmol/l of CaCl2, average value of 4 to 6 vessel strips, read-out: IC50: concentration of the test substance which inhibits the contraction by 50%
Experimental: The pharmacological action of the compounds of the formula I was determined by a modified method of Godfraind and Kaba (Arch.Int. Pharmacodyn. Ther. 196, (Suppl.) 35 to 49, 1972) and of Schuman et al (Naunyn-Schmiedeberg's Arch. Pharmacol. 289, 409 to 418, 1975). In this connection, spiral strips of the pulmonary artery of the guinea pig are depolarized using 40 mmol/l of potassium after equilibration in calcium-free Tyrode solution. An addition of 0.5 mmol/l of CaCl2 then induces a contraction. The relaxant effect of the test substance is determined by cumulative addition in semilogarithmic graduated concentrations. The concentration of the test substance which inhibits the contraction by 50% (=IC50, mol/l) is determined from the concentration-effect curve (abscissa: -log mol/l of test substance, ordinate: % inhibition of the maximum contraction, average value of 4 to 6 vessel strips).

Structure (SMILES) | IC50 [nM] | IC50 (Cavia porcellus) [nM]
CCOC(=O)[N-]c1cn(N2CCOCC2)n[o+]1 [Molsidomine, N-ethoxycarbonyl-3-morpholino-sydnone imine, reference compound] | > 300000 | 
CCCCCCc1c(=N)o[n-][n+]1N1C(C)CCCC1C (stereo not shown) [Example 3, 3-(2,6-Dimethylpiperidino)-4-hexylsydnone imine hydrochloride] |  | 2400
CC1CCCC(C)N1[n+]1[n-]oc(=N)c1CCc1ccccc1 (stereo not shown) [Example 8, 3-(2,6-Dimethylpiperidino)-4-(2-phenylethyl)sydnone imine hydrochloride] |  | 2000
CC1CCCC(C)N1[n+]1[n-]oc(=N)c1Cc1ccccc1 (stereo not shown) [Example 6, 4-Benzyl-3-(2,6-dimethylpiperidino)sydnone imine hydrochloride] |  | 2300
